Experimental data reported in patent publication US10031142B2, “In situ chemiluminescent substrates and assays” (Life Technologies Corporation, priority 2010, dated 2018).
Like-named read-outs stand apart in the source and are kept apart here.

How the values were obtained:
alkaline phosphatase [1] = settings: TBQ, 37° C., 25 minutes
Description: The following reagents were used for this: • 0.1M aminomethylpropanol buffer, pH 9.5 (AMP Buffer), • CDP-Star® (CDP*, Life Technologies): 6.2 mg/mL (12.5 mM) in AMP Buffer, • ADP-Star® (ADP*, Life Technologies): 1 mg/mL (2.2 mM) in 0.1M AMP Buffer, • ADP*-EE Oxidation mixture: 1 mg/mL (2.3 mM) in 0.1M AMP Buffer, • TBQ: 10× Sapphire II™ chemiluminescence enhancer (Life Technologies), and • Alkaline Phosphatase stock (AP): 8 ng/mL (from 17.4 mg/mL concentrate).
10 μL ADP* or ADP*-EE Oxidation mixture (0.22 or 0.23 mM, respectively), 10 μL TBQ, 80 μL AMP Buffer and 10 μL AP were combined and the luminescence from the mixture was measured continuously at 37° C. for 25 minutes. 1.6 μL CDP* (0.2 mM), 10 μL TBQ, 80 μL AMP Buffer and 10 μL AP were combined and the luminescence from the mixture was measured continuously at 37° C. for 25 minutes.

[2] = Thermal stability of aqueous solutions of reagents; type: physicochemical
Description: The thermal stabilities of aqueous solutions AMPPD®, AMPPD enol ether phosphate (AMPPD-EE) and AMPPD-EE in the presence of Na2MoO4 were examined.

alkaline phosphatase [3] = settings: in the presence of Sapphire II enhancer
Description: Benchmarking experiments compared the light emission (in RLUs) and signal to noise (S:N) of in situ ADP-Star with control dioxetanes CSPD®, ADP-Star®, and CDP-Star®.

[4] = cited from earlier work
alkaline phosphatase [5] = tested on: alkaline phosphatase
Description: Before developing assay conditions with Method B in situ dioxetane generation, we investigated whether the reagents from the oxidation system adversely affected alkaline phosphatase activity. […] Any quenching effects from a singlet oxygen generation/reaction system may be enzyme-specific, and would have to be evaluated for any enzyme/detection substrate pair.

With COC(=C1C2CC3CC(C2)CC1C3)c1ccc(Cl)c(OP(=O)([O-])[O-])c1.[Na+].[Na+] [ADP-Star enol ether phosphate] the “light emission compared with CDP-Star dioxetane control” value (alkaline phosphatase [1]) was “higher light emission”.
For COC(=C1C2CC3CC(C2)CC1C3)c1cccc(OP(=O)([O-])[O-])c1.[Na+].[Na+] [AMPPD-EE], the “Stability/Storage Conditions (loss)” value ([2]; 1 month, 55° C.) was “Minimal loss in 1 month, 55 °C”, the thermal decomposition ([2]; aqueous solution, 40° C. over 4+ months) was “virtually no thermal decomposition” and the thermal decomposition ([2]; aqueous solution, 55° C. over 5+ months) was “minimal thermal decomposition”. For the same molecule, the thermal decomposition ([2]; in the presence of Na2MoO4 at 40° C.) was “no thermal decomposition”.
For COC1(c2cccc(OP(=O)(O)O)c2)OOC12C1CC3CC(C1)CC2C3 (stereo not drawn) [AMPPD®, reference compound], the thermal half-life ([2]; aqueous solution, 40° C.) was ~40 days and the thermal half-life ([2]; aqueous solution, 55° C.) was ~10 days.
For COC1(c2cccc(OP(=O)(O)O)c2)OOC12C1CC3CC2CC(Cl)(C3)C1 (stereo not drawn) [CSPD®], the “time reaching glow (maximum light emission)” value (alkaline phosphatase [3]) was 30 min.
For OO [hydrogen peroxide], the “Stability/Storage Conditions” value ([4]; 35% soln, 1 yr, 25° C.) is given as >99.3% in 1 yr, 25° C.;, the “Stability/Storage Conditions” value ([4]; 35% soln, 24 hr, 100° C.) is given as ≥96.0% in 24 hr, 100 °C and the “effect on alkaline phosphatase activity” value (alkaline phosphatase [5]) is given as “does not affect alkaline phosphatase activity”.
For [Na+].[Na+].[O]=[Mo](=[O])([O-])[O-] [sodium molybdate], the “Stability/Storage Conditions” value ([4]; solid) is listed as ““Stable under ordinary conditions of use &”, the “effect on alkaline phosphatase activity” value (alkaline phosphatase [5]; AMPPD substrate, TBQ enhancer, 37° C., 30 minutes) is listed as “significantly quenches alkaline phosphatase activity” and the “light reduction (quenching of alkaline phosphatase activity)” value (alkaline phosphatase [5]; AMPPD substrate, various amounts of Na2MoO4 stock, 37° C.) is listed as “up to 85%”. The “alkaline phosphatase activity on lowering concentration” value (alkaline phosphatase [5]; sodium molybdate <1 mM) was “restores most of the alkaline phosphatase activity”.
